Results: US10028992B2, “Methods of treating muscular dystrophy” (BOARD OF REGENTS OF THE NEVADA SYSTEM OF HIGHER EDUCATION …, priority 2012, dated 2018)

Tested on: α7 integrin promoter
Assay: muscle cell-based assay: α7βgal+/− myoblasts/myotubes, LacZ reporter, β-galactosidase cleavage of FDG
Parameters: species or system mouse; Results in α7+/− β-galactosidase assay: scale not given here
Conditions: Myoblasts
Summary of the method: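 Primary α7βgal+/− mouse myoblasts (LacZ knocked into α7 integrin exon 1, promoter retained), differentiated; promoter activity read as β-galactosidase conversion of non-fluorescent FDG to fluorescein. Hits followed by dose-response, western analysis and myostatin counterscreen.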

SMILES | Results in α7+/− β-galactosidase assay (0.5 uM) | Results in α7+/− β-galactosidase assay (1 uM) | Results in α7+/− β-galactosidase assay (5 uM) | Results in α7+/− β-galactosidase assay (10 uM) | Results in α7+/− β-galactosidase assay (20 uM) | Results in α7+/− β-galactosidase assay (40 uM)
Cc1cccc(NC(=O)CN(C)C(=O)c2ccc(-c3ccc(Cl)cc3)o2)c1 [drawing 643] | −0.0624 | −0.00739 | −0.04166 | −0.109 | 0.6807 | −0.2589
Cc1ccccc1S(=O)(=O)N1C[C@H]2CON(C)[C@H]2C[C@H]1c1cccc(-c2ccccc2)c1 [drawing 644] | 0.06241 | 0.06141 | 0.04452 | 0.08987 | −0.2419 | −0.2934
N#C/C(=C/c1ccc(N2CCOCC2)o1)C(=O)Nc1ccccc1 [drawing 645] | 0.06835 | 0.1707 | 0.1316 | 0.05082 | 0.07006 | 0.03748
CCOc1ccccc1Nc1cc2n(c(=O)n1)CCc1cc(OC)c(OC)cc1-2 [drawing 646] | −0.02172 | 0.002645 | −0.2359 | −0.3859 | −0.7975 | −0.7954
CCOc1ccccc1NC(=O)COC(=O)CNS(=O)(=O)c1ccc(C)cc1 [drawing 648] | 0.03233 | 0.05083 | −0.02764 | −0.06749 | −0.1666 | −0.1295
Fc1ccc(-c2ccnc3nc(N4CCN(c5ccccc5)CC4)nn23)cc1 [drawing 649] | 0.1594 | 0.2225 | 0.1641 | 0.1229 | 0.02594 | 0.02675
CCOc1cc2c3c(c1)C(C)=CC(C)(C)N3C(=O)C2=O [drawing 650] | 0.1703 | 0.1592 | −0.1933 | −0.4363 | −0.8277 | −0.8257
COc1ccc2c(c1)/C(=C\c1cccc(/C=C3/C(=O)Nc4ccc(OC)cc43)n1)C(=O)N2 [drawing 651] | −0.2196 | −0.4455 | −0.825 | −0.8112 | −0.9441 | −0.9511
C/C(=N\NC(=O)c1cc(C)oc1C)c1ccc2ccccc2c1 [drawing 652] | −0.1564 | −0.09115 | 0.2722 | −0.1575 | −0.3649 | −0.6275
O=C1Nc2ccccc2/C1=C\c1cccn1-c1ccc(OC(F)(F)F)cc1 [drawing 653] | −0.1201 | 0.155 | 0.2721 | 0.07821 | 0.05267 | −0.1116
NS(=O)(=O)c1ccc(NC(=O)CN2CCc3ccccc32)cc1 [drawing 654] | −0.2007 | −0.06684 | 0.3068 | 0.002758 | −0.1257 | −0.1195
CC(=O)C1=C(C)Nc2ncnn2C1c1ccc(C)cc1 (stereo not drawn) [drawing 655] | −0.08387 | 0.003197 | 0.2805 | −0.01305 | −0.1533 | −0.247
COc1ccc(OC)c(S(=O)(=O)Nc2c(NC3CCCCC3)c3ccccc3oc2=O)c1 [drawing 656] | −0.2127 | −0.1212 | 0.2955 | −0.031 | −0.2083 | −0.2716
CC(=O)Nc1ccc(NC(=O)C/C(C)=N/NC(=O)COc2cc(C)c(Br)cc2Br)cc1 [drawing 657] | −0.2303 | −0.07096 | 0.03872 | −0.07468 | −0.3089 | −0.4449
Cc1cccc(Cn2cnc3c(nnn3Cc3ccc(Cl)cc3)c2=O)c1 [drawing 658] | −0.04558 | 0.03537 | 0.1703 | −0.06567 | −0.2167 | −0.3491
CCOc1ccc(Br)cc1S(=O)(=O)Nc1ccc(C(=O)Nc2ccccc2OC)cc1 [drawing 659] | −0.08436 | 0.06885 | 0.1299 | −0.03674 | −0.08958 | −0.05546
O=C(NCc1ccccc1)c1csc(-c2cccnc2)n1 [drawing 660] | −0.1908 | −0.04939 | 0.2247 | 0.1255 | 0.2423 | 0.1166
O=C1C2CCCN2C(=O)N1CCCN1CCN(c2cccc(Br)c2)CC1 (stereo not drawn) [drawing 661] | 0.07667 | 0.0555 | 0.04982 | 0.05028 | 0.1016 | 0.1941
C=CCc1c(C)nc(-c2ccccc2)nc1N/N=C(\C)c1ccc(N)cc1 [drawing 662] | −0.00814 | −0.05498 | 0.04244 | 0.0834 | −0.05956 | −0.02989
CC(C)(C)c1csc(NC(=O)c2cccnc2)n1 [drawing 663] | 0.2482 | 0.1813 | 0.09125 | 0.06663 | −0.2863 | −0.3378
Cc1ccccc1/C=C1\C(=O)Nc2ccc(F)cc21 [drawing 664] | 0.2562 | 0.1979 | 0.05318 | 0.04838 | −0.109 | −0.1352
Cc1ccc2c(c1)/C(=C/c1ccccc1)C(=O)N2 [drawing 665] | 0.07717 | 0.02304 | 0.03576 | 0.07323 | −0.484 | −0.5725
COC(=O)c1ccccc1CC(=O)CSc1nc(O)c(-c2ccccc2)c(O)n1 [drawing 666] | 0.06548 | 0.01829 | 0.06613 | 0.1141 | 0.0713 | 0.08837
Cc1ccc2c(c1)/C(=C/c1ccccc1F)C(=O)N2 [drawing 667] | −0.02616 | 0.02782 | −0.04422 | −0.06595 | −0.1695 | −0.3533
CC(=O)Nc1ccc(-n2c(C)nc(=O)c(-c3ccccc3)c2C)cc1 [drawing 668] | 0.06264 | −0.004 | −0.1843 | −0.1948 | −0.4829 | −0.7384
CCc1nc2ccccc2c(C(=O)NCc2ccccc2)c1C [drawing 669] | 0.09233 | 0.1045 | 0.3581 | −0.08672 | 0.0466 | 0.1074
CCOC(=O)c1cc(-c2cccs2)nc2c1c(C)nn2-c1ccccn1 [drawing 670] | 0.09738 | 0.1342 | −0.1204 | −0.2068 | −0.3072 | −0.5198
CN1CCN(c2ccccc2/C=C2\C(=O)Nc3ccccc32)CC1 [drawing 671] | 0.1788 | 0.04505 | −0.08497 | −0.09387 | −0.1256 | −0.3824
